Data on 31 compounds can be found in US10183950B2, “Thienopyrimidine inhibitors of atypical protein kinase C” (Cancer Research Technology Limited, priority 2011, dated 2019).

The structures appear in SMILES notation.

The target in the test is T1, kinase-domain human PKCι (Homo sapiens, UniProt P41743).
T1 construct: Recombinant, kinase-domain human PKCι is expressed and purified in-house; made in house
T1 sequence (P41743 254-522 limits assumed): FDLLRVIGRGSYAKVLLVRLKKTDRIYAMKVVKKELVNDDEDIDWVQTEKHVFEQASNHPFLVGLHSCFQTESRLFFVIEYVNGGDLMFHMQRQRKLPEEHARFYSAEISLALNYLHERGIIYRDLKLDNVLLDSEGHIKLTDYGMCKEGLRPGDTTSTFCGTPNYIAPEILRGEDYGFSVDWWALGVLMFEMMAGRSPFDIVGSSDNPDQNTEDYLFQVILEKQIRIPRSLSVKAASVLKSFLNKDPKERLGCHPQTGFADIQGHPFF
Nature of the test: PKCι IC50 IMAP fluorescence polarisation assay, kinase-domain enzyme. Format: biochemical. The following applies: kinase domain PKCi at 2 μM ATP; read-out: IC50 in IMAP assay against kinase domain PKCi (Activity). As for the experimental part: Assays are based on the ability of PKCι to phosphorylate a commercially available peptide substrate in vitro. […] Recombinant, full-length human PKCι expressed in Sf21 insect cells is also commercially available. Recombinant, kinase-domain human PKCι is expressed and purified in-house.
The procedure below explains how dose response curves for inhibitors of PKCι are obtained.
Compounds to be tested are dissolved in 100% DMSO. […] 1 μl is plated into 384 well black low-binding flat bottomed assay plates which are used immediately. Dilutions and additions of compound to assay plates are carried out using Matrix WellMate® and Matrix PlateMate® Plus liquid handling systems.
The final concentration of peptide substrate in the assay is 100 nM. […] Relevant controls are included, namely no compound and no enzyme. […] The reaction is allowed to incubate for 60 minutes at room temperature, before the reaction is stopped and developed by the addition of 20 μl IMAP™ development reagent (Molecular Devices). IMAP development reagent consists of 0.25% (v/v) IMAP progressive binding reagent, 17% (v/v) IMAP progressive binding buffer A and 3% (v/v) IMAP progressive binding buffer B. The plates are then incubated for 2 hours at room temperature before being read using an appropriate plate reader, for example a Molecular Devices HT Analyst or a BMG Pherastar.
On the technique in general: Polarisation of emitted light reports the rotation of a fluorescent probe.
On to `c1cc(-c2nc(N3CCCNCC3)c3c4c(sc3n2)CCCCC4)ccn1` [compound 86, 4-[1,4]Diazepan-1-yl-2-pyridin-4-yl-6,7,8,9-tetrahydro-5H-10-thia-1,3-diaza-benzo[a]azulene], for which the IC50 (as a rule, the midpoint of a concentration-inhibition curve) fell in the range of 0.1 to 1 µM.

As for `N[C@H](CNc1nc(-c2ccncc2)nc2sc3c(c12)CCCCC3)Cc1ccccc1` [compound 87, (S)-3-Phenyl-N*1*-(2-pyridin-4-yl-6,7,8,9-tetrahydro-5H-10-thia-1,3-diaza-benzo[a]azulen-4-yl)-propane-1,2-diamine], the half-maximal inhibitory concentration (IC50) was in the range of 0.1 to 1 µM.

`C[C@H](N)CNc1nc(-c2ccncc2)nc2sc3c(c12)CCCCC3` [compound 88, (S)-N*1*-(2-Pyridin-4-yl-6,7,8,9-tetrahydro-5H-10-thia-1,3-diaza-benzo[a]azulen-4-yl)-propane-1,2-diamine]: the IC50 is 0.1 to 1 µM.

As for `C[C@@H](N)CNc1nc(-c2ccncc2)nc2sc3c(c12)CCCCC3` [compound 89, (R)-N*1*-(2-Pyridin-4-yl-6,7,8,9-tetrahydro-5H-10-thia-1,3-diaza-benzo[a]azulen-4-yl)-propane-1,2-diamine], the IC50 was 0.1 to 1 µM.

As for `Cc1sc2nc(-c3ccncc3)nc(NCCN)c2c1-c1ccccc1` [compound 91, N*1*-(6-Methyl-5-phenyl-2-pyridin-4-yl-thieno[2,3-d]pyrimidin-4-yl)-ethane-1,2-diamine], the IC50 lay in the range of 1 to 10 µM.

On to `Cc1sc2nc(-c3ccncc3)nc(N3CCCNCC3)c2c1-c1ccccc1` [compound 92, 4-[1,4]Diazepan-1-yl-6-methyl-5-phenyl-2-pyridin-4-yl-thieno[2,3-d]pyrimidine], for which the IC50 fell in the range of 1 to 10 µM.

Regarding `Brc1ccc(-c2csc3nc(-c4ccncc4)nc(N4CCCNCC4)c23)cc1` [compound 93, 5-(4-Bromo-phenyl)-4-[1,4]diazepan-1-yl-2-pyridin-4-yl-thieno[2,3-d]pyrimidine], the IC50 was 1 to 10 µM.

Consider `Cc1csc2nc(-c3ccncc3)nc(N3CCNCC3)c12` [compound 94, 5-Methyl-4-piperazin-1-yl-2-pyridin-4-yl-thieno[2,3-d]pyrimidine], for which the IC50 was below 0.1 µM.

With `Cc1csc2nc(-c3ccncc3)nc(N3CCCNCC3)c12` [compound 95, 4-[1,4]Diazepan-1-yl-5-methyl-2-pyridin-4-yl-thieno[2,3-d]pyrimidine], the IC50 lay in the range of 0.1 to 1 µM.

For `NCCNc1nc(-c2ccncc2F)nc2sc3c(c12)CCCC3` [compound 97, N*1*-[2-(3-fluoro-pyridin-4-yl)-5,6,7,8-tetrahydro-benzo[4,5]thieno [2,3-d]pyrimidin-4-yl]-ethane-1,2-diamine], the IC50 was in the range of 1 to 10 µM.

For `NCCNc1nc(-c2ccnc(F)c2)nc2sc3c(c12)CCCC3` [compound 98, N*1*-[2-(2-Fluoro-pyridin-4-yl)-5,6,7,8-tetrahydro-benzo[4,5]thieno[2,3-d]pyrimidin-4-yl]-ethane-1,2-diamine], the IC50 lay in the range of 10 to 40 µM.

On to `C[C@H](N)CNc1nc(-c2ccncc2F)nc2sc3c(c12)CCCC3` [compound 99, (S)-N*1*-[2-(3-Fluoro-pyridin-4-yl)-5,6,7,8-tetrahydro-benzo[4,5]thieno[2,3-d]pyrimidin-4-yl]-propane-1,2-diamine], for which the IC50 was in the range of 1 to 10 µM.

Consider `C[C@@H](N)CNc1nc(-c2ccncc2F)nc2sc3c(c12)CCCC3` [compound 100, (R)-N*1*-[2-(3-Fluoro-pyridin-4-yl)-5,6,7,8-tetrahydro-benzo[4,5]thieno[2,3-d]pyrimidin-4-yl]-propane-1,2-diamine], for which the IC50 lay within 1 to 10 µM.

Consider `c1ccc(CN2CCN(c3nc(-c4ccncc4)nc4sc5c(c34)CCCC5)CC2)cc1` [compound 116, 4-(4-Benzyl-piperazin-1-yl)-2-pyridin-4-yl-5,6,7,8-tetrahydro-benzo[4,5]thieno[2,3-d]pyrimidine], for which the IC50 lay in the range of 10 to 40 µM.

Take `Brc1ccc(CN2CCN(c3nc(-c4ccncc4)nc4sc5c(c34)CCCC5)CC2)cc1` [compound 117, 4-[4-(4-Bromo-benzyl)-piperazin-1-yl]-2-pyridin-4-yl-5,6,7,8-tetrahydro-benzo[4,5]thieno[2,3-d]pyrimidine]: the IC50 is 10 to 40 µM.

For `c1cc(CN2CCN(c3nc(-c4ccncc4)nc4sc5c(c34)CCCC5)CC2)ccn1` [compound 118, 2-Pyridin-4-yl-4-(4-pyridin-4-ylmethyl-piperazin-1-yl)-5,6,7,8-tetrahydro-benzo[4,5]thieno[2,3-d]pyrimidine], the IC50 lay within 1 to 10 µM.

As to `CCN1CCN(c2nc(-c3ccncc3)nc3sc4c(c23)CCCC4)CC1` [compound 119, 4-(4-Ethyl-piperazin-1-yl)-2-pyridin-4-yl-5,6,7,8-tetrahydro-benzo[4,5]thieno[2,3-d]pyrimidine], the IC50 fell in the range of 1 to 10 µM.

As for `c1ccc(CN2CCN(c3nc(-c4ccncc4)nc4sc5c(c34)CCCC5)CC2)nc1` [compound 120, 2-Pyridin-4-yl-4-(4-pyridin-2-ylmethyl-piperazin-1-yl)-5,6,7,8-tetrahydro-benzo[4,5]thieno[2,3-d]pyrimidine], the IC50 lay in the range of 10 to 40 µM.

As for `FC(F)(F)c1ccc(CN2CCN(c3nc(-c4ccncc4)nc4sc5c(c34)CCCC5)CC2)cc1` [compound 121, 2-Pyridin-4-yl-4-[4-(4-trifluoromethyl-benzyl)-piperazin-1-yl]-5,6,7,8-tetrahydro-benzo[4,5]thieno[2,3-d]pyrimidine], the IC50 was 10 to 40 µM.

Turning to `Clc1ccc(CN2CCN(c3nc(-c4ccncc4)nc4sc5c(c34)CCCC5)CC2)cc1` [compound 122, 4-[4-(4-Chloro-benzyl)-piperazin-1-yl]-2-pyridin-4-yl-5,6,7,8-tetrahydro-benzo[4,5]thieno[2,3-d]pyrimidine], the IC50 fell in the range of 10 to 40 µM.

In the case of `Clc1ccccc1CN1CCN(c2nc(-c3ccncc3)nc3sc4c(c23)CCCC4)CC1` [compound 123, 4-[4-(2-Chloro-benzyl)-piperazin-1-yl]-2-pyridin-4-yl-5,6,7,8-tetrahydro-benzo[4,5]thieno[2,3-d]pyrimidine], the half-inhibitory concentration (IC50) is 10 to 40 µM.

As to `Clc1cccc(CN2CCN(c3nc(-c4ccncc4)nc4sc5c(c34)CCCC5)CC2)c1` [compound 124, 4-[4-(3-Chloro-benzyl)-piperazin-1-yl]-2-pyridin-4-yl-5,6,7,8-tetrahydro-benzo[4,5]thieno[2,3-d]pyrimidine], the IC50 is 10 to 40 µM.

Turning to `CN1CCN(c2nc(-c3ccncc3)nc3sc4c(c23)CCCC4)CC1` [compound 125, 4-(4-Methyl-piperazin-1-yl)-2-pyridin-4-yl-5,6,7,8-tetrahydro-benzo[4,5]thieno[2,3-d]pyrimidine], the IC50 lay within 1 to 10 µM.

Regarding `Oc1cccc(CN2CCN(c3nc(-c4ccncc4)nc4sc5c(c34)CCCC5)CC2)c1` [compound 126, 3-[4-(2-Pyridin-4-yl-5,6,7,8-tetrahydro-benzo[4,5]thieno[2,3-d]pyrimidin-4-yl)-piperazin-1-ylmethyl]-phenol], the IC50 fell in the range of 10 to 40 µM.

As to `Brc1cccc(CN2CCN(c3nc(-c4ccncc4)nc4sc5c(c34)CCCC5)CC2)c1` [compound 127, 4-[4-(3-Bromo-benzyl)-piperazin-1-yl]-2-pyridin-4-yl-5,6,7,8-tetrahydro-benzo[4,5]thieno[2,3-d]pyrimidine], the IC50 was in the range of 10 to 40 µM.

`Brc1ccc(CN2CCN(c3nc(-c4ccncc4)nc4sc5c(c34)CCCC5)CC2)cn1` [compound 128, 4-[4-(6-Bromo-pyridin-3-ylmethyl)-piperazin-1-yl]-2-pyridin-4-yl-5,6,7,8-tetrahydro-benzo[4,5]thieno[2,3-d]pyrimidine]: the half-maximal inhibitory concentration (IC50) lay within 10 to 40 µM.

Consider `CCCCN1CCN(c2nc(-c3ccncc3)nc3sc4c(c23)CCCC4)CC1` [compound 129, 4-(4-Butyl-piperazin-1-yl)-2-pyridin-4-yl-5,6,7,8-tetrahydro-benzo[4,5]thieno[2,3-d]pyrimidine], for which the IC50 was 10 to 40 µM.

For `c1cncc(CN2CCN(c3nc(-c4ccncc4)nc4sc5c(c34)CCCC5)CC2)c1` [compound 130, 2-Pyridin-4-yl-4-(4-pyridin-3-ylmethyl-piperazin-1-yl)-5,6,7,8-tetrahydro-benzo[4,5]thieno[2,3-d]pyrimidine], the IC50 was 10 to 40 µM.

On to `Brc1cnccc1CN1CCN(c2nc(-c3ccncc3)nc3sc4c(c23)CCCC4)CC1` [compound 131, 4-[4-(3-Bromo-pyridin-4-ylmethyl)-piperazin-1-yl]-2-pyridin-4-yl-5,6,7,8-tetrahydro-benzo[4,5]thieno[2,3-d]pyrimidine], for which the half-inhibitory concentration (IC50) was 10 to 40 µM.

Regarding `c1ccc(CCN2CCN(c3nc(-c4ccncc4)nc4sc5c(c34)CCCC5)CC2)cc1` [compound 132, 4-(4-Phenethyl-piperazin-1-yl)-2-pyridin-4-yl-5,6,7,8-tetrahydro-benzo[4,5]thieno[2,3-d]pyrimidine], the IC50 was 10 to 40 µM.

As to `CCCN1CCN(c2nc(-c3ccncc3)nc3sc4c(c23)CCCC4)CC1` [compound 133, 4-(4-Propyl-piperazin-1-yl)-2-pyridin-4-yl-5,6,7,8-tetrahydro-benzo[4,5]thieno[2,3-d]pyrimidine], the IC50 was 10 to 40 µM.
